Reference: patent US11541049B2, “Tetrahydroisoquinoline derivatives, preparation process and use thereof” (SICHUAN KELUN-BIOTECH BIOPHARMACEUTICAL CO., LTD., priority 2018, dated 2023)

Experiments:
[1] = biological target: human coagulation factor XIa (Homo sapiens (Human), UniProt P03951); experiment: Inhibition of coagulation factor XIa (fluorogenic substrate, enzyme kinetic mode); assay type: biochemical
Experimental: The following procedures can be used to determine the in vitro inhibition of human coagulation factor XIa by the compound of the present disclosure, as indicated by IC50.
Enzyme: human coagulation factor XIa; manufacturer: Haemtech;
Substrate: Boc-Ile-Glu-Gly-Arg-AMC Acetate salt; manufacturer: Bachem;
Reaction buffer: 50 mM HEPES, 145 mM NaCl, 5 mM KCl, 0.1% BSA, pH 7.4;
The test compounds were dissolved in reaction buffer at different concentrations. 4 μl of coagulation factor XIa and 4 μl of the test compound were added to a 384 well plate, incubated at room temperature for 10 minutes after mixed thoroughly, and then 4 μl of substrate was added to initiate the reaction. For reading fluorescence signal value, enzyme kinetic mode was used. The wavelength of excitation light was selected to be 380 nm, and the wavelength of emission light was selected to be 460 nm. Read once per 30 seconds, and continuously read 20 cycles. Linear regression analysis of signal value-time was performed during the linear reaction period, and the slope was the reaction rate, and the enzyme activity inhibition rate was calculated according to the following formula. The half inhibitory concentration IC50 values of the compound were fitted using GraphPad Prism 5 software, and results are shown in Table 1. Inhibition rate %=(V0−Vi)/(V0−Vblank)×100.
In the formula: V0 is the reaction rate of the control well (using the same volume of reaction buffer without adding test compound), Vi is the reaction rate of test compound, Vblank is a blank well (using the same volume of reaction buffer without adding either enzyme or test compound).

[2] = system: SD rats; experiment: Single dose toxicity study in SD rats, intravenous infusion; conditions: 50, 75, 100, 150, 200 mg/kg, intravenous infusion (2 ml/min)
Experimental: The clinical observation was carried out for 7 days after a single dose, and the body weight of the animals were measured. On the 8th day, blood samples were taken after anesthesia for detection of hematology, blood biochemistry, coagulation and other indicators. Observation was also conducted by gross anatomy.

[3] = Pharmacokinetics study in male rabbits, intravenous injection; assay type: in vivo
Experimental: Pharmacokinetics properties were examined by administering compound of the present disclosure and the reference compound (BMS-962212) to male rabbits through intravenous injection (IV). Blood was collected at various time points after administration. The blood was anticoagulated with EDTA-K2. Plasma samples were obtained by centrifugation, and retained at −80° C. The plasma samples were processed to precipitate the proteins and then analyzed by LC-MS/MS.
The pharmacokinetic parameters were calculated using WinNonlin 6.3 software by employing a non-compartmental model.

Chain of human coagulation factor XIa (P03951 388-625): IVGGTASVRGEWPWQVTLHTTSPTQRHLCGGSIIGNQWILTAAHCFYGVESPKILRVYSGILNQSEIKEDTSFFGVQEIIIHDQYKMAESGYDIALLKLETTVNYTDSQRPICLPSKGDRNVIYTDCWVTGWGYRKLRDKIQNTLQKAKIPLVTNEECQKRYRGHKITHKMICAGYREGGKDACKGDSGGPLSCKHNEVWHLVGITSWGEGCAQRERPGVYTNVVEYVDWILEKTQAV
Chain of human coagulation factor XIa (P03951 19-387): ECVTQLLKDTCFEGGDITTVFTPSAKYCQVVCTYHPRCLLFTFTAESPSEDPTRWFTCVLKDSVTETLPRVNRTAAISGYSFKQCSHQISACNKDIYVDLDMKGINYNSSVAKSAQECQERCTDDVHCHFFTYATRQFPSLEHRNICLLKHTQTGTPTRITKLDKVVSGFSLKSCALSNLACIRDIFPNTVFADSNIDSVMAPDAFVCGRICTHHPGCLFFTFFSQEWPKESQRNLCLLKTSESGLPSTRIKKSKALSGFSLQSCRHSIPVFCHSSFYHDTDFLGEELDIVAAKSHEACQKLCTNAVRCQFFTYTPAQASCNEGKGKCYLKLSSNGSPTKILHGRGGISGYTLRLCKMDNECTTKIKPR

**Q.** For `N[C@@H](CCCCNC(=O)CN1CC=C(c2cccc3c2CCN(C(=O)[C@H]2CC(c4cccc(Cl)c4F)=NO2)[C@@H]3C(=O)Nc2ccc(C(=O)O)cc2)CC1)C(=O)O` [Example 5, 4-((S)-5-(1-(2-(((S)-5-amino-5-carboxypentyl)amino)-2-oxoethyl)-1,2,3,6-tetrahydropyridin-4-yl)-2-((R)-3-(3-chloro-2-fluorophenyl)-4,5-dihydroisoxazole-5-carbonyl)-1,2,3,4-tetrahydroisoquinoline-1-carboxamido)benzoic acid], which IC50 [1] is on record?
**A.** 0.16 ± 0.02 nM

**Q.** What about the “Single dose toxicity study in SD rats: observation” value [2] of the same compound?
**A.** No abnormality was found

**Q.** And the “AUClast relative to that of the reference compound” value ([3]; 1 mg/kg each)?
**A.** 12.04 times

**Q.** And the “Cmax relative to that of the reference compound” value ([3]; 1 mg/kg each)?
**A.** 4.74 times

**Q.** And the “T1/2 relative to that of the reference compound” value ([3]; 1 mg/kg each)?
**A.** 2.65 times

**Q.** And the AUC(0-inf) ([3]; male, rabbit, plasma, 1 mg/kg)?
**A.** 5740 ± 2270 ng·h/mL

**Q.** What about the AUC(0-t) ([3]; male, rabbit, plasma, 1 mg/kg) of the same compound?
**A.** 5730 ± 2270 ng·h/mL

**Q.** And the Cmax ([3]; male, rabbit, plasma, 1 mg/kg)?
**A.** 6950 ± 1900 ng/mL

**Q.** And the Vd ([3]; male, rabbit, plasma, 1 mg/kg)?
**A.** 0.3 ± 0.09 L/kg

**Q.** And the clearance ([3]; male, rabbit, plasma, 1 mg/kg)?
**A.** 3.18 ± 1.06 mL/min/kg

**Q.** What about the half-life ([3]; male, rabbit, plasma, 1 mg/kg) of the same compound?
**A.** 1.14 ± 0.26 h

**Q.** What about the “apparent volume of distribution as share of that of the reference compound” value ([3]; same dosage 1 mg/kg) of the same compound?
**A.** 23%
